Measured values reported in patent US7645609B2, “Method for controlling sialylation of proteins produced by mammalian cells” (Immunex Corporation, priority 2002, dated 2010).

Key:
cultured cells = settings: N-acetylmannosamine added to culture medium; cited from earlier work
[1] = test system: CHO cell line that had been genetically engineered to produce TNFR:Fc; assay: Fraction of TNFR:Fc eluting at high salt from an anion exchange column (relative extent of sialylation); type: cell-based, Chinese hamster; settings: additives at 4 mM each in serum-free medium, 7 days at 30° C., FIG. 2
Procedure: The following experiment was done to determine which carbohydrate or combination of carbohydrates added to cell culture medium is able to induce the most sialylation of TNFR:Fc produced by the cells. The relative extent of sialylation was determined by measuring the fraction of TNFR:Fc produced by a cell culture that elutes from an anion exchange column only at a high salt concentration. This provides a rough measure of the extent of sialylation because proteins with more sialic acid require a higher salt concentration for elution from an anion exchange column. […] Cultures were incubated for 7 days at 30° C. with shaking at 150 revolutions per minute. TNFR:Fc was harvested from the medium after seven days of growth and pre-purified by Protein A affinity chromatography. Thereafter, the purified TNFR:Fc protein concentration was determined by measuring absorbance at 280 nanometers. […] At 22.1 minutes, the gradient was complete, and the column contained 100% Buffer B. Elution of protein was determined by monitoring absorbance at 280 nanometers, and a graph of these measurements versus time (relative to the time of loading) was recorded automatically as the protein eluted from the column. […] The fraction of TNFR:Fc that eluted at high salt was determined by comparing the area under the curve that eluted after soybean trypsin inhibitor with the total area under the curve. […]

Structure (SMILES): CC(=O)N[C@@H]1C(O)O[C@H](CO)[C@@H](O)[C@@H]1O (some centres unmarked) [N-acetylmannosamine]
- sialylation of a protein produced by the cultured cells (cultured cells): increased sialylation

Structure (SMILES): O=C[C@H](O)[C@@H](O)[C@@H](O)[C@H](O)CO [galactose]
- sialylation of TNFR:Fc (high salt-eluting fraction compared to a batch produced without medium additives) [1]: increases in sialylation
